Data published in patent publication US9482923B2, “Colored composition and image display structure” (FUJIFILM CORPORATION, priority 2011, dated 2016).

Assays:
Assay type in all cases: physicochemical
[1] = Absorption maximum wavelength and absorption coefficient of colored composition (visible-light spectrophotometer); design: Absorption Coefficient (ε): unit not given here; details: n-hexane solution; for Absorption Coefficient (ε): calculated by Lambert-Beer law
Description: Each of the dyes shown above as Exemplary Compounds D-2, D-11, D-13, D-14, D-25, D-37, E-2, E-3, and E-7 was dissolved in a solvent (n-hexane) to make a 3% by mass solution, thereby preparing a colored composition (ink). Each of the colored compositions (inks) obtained was evaluated with respect to its color, absorption maximum wavelength (λmax), absorbance (abs), absorption coefficient (∈), viscosity, and relative dielectric constant, and solubility (% by mass) of each of the dyes in a solvent.
2. Absorption Maximum Wavelength, Absorbance, and Absorption Coefficient of Colored Composition
The absorption maximum wavelength (λmax) and the absorbance (abs) of the colored composition were measured using a visible-light spectrophotometer (trade name: UV-1800PC, manufactured by Shimadzu Corporation). The absorption coefficient (∈) was calculated based on the Lambert-Beer law.

[2] = Solubility of the dye in n-hexane; details: for Solubility (% by mass): in n-hexane at 25° C. and 0.1 MPa; for Solubility (in words): n-hexane
Description: 3. Solubility in n-Hexane
The solubility of each of the dyes in n-hexane (solvent) was determined as follows.
Each of the dyes to be measured was dissolved in n-hexane heated at 50° C., thereby preparing a saturated solution. The saturated solution obtained was then left in an environment of 25° C. and 0.1 MPa for 1 hour. The precipitated dye was filtered, and the precipitation amount was measured, from which the solubility (% by mass) of the dye in n-hexane at 25° C. and 0.1 MPa was calculated.

[3] = Measurement of viscosity of dye solutions in n-hexane (R-type viscometer); details: 20° C.; for Viscosity (5%): 5% by mass solution in n-hexane
[4] = Measurement of relative dielectric constant of the dye (LCR meter, extrapolation); details: extrapolated from 5, 7.5 and 10% by mass n-hexane solutions, 20° C., 40% RH, 1 kHz
Description: 4. Measurement of Relative Dielectric Constant
Solutions of the dye in n-hexane having concentrations of 5% by mass, 7.5% by mass and 10% by mass, respectively, were prepared, and individually injected into glass cells each having transparent indium-tin-oxide electrodes and a cell gap of 10 μm. The electrical capacities of the resultant cells were measured at 20° C. and 40% RH using a type 2353 LCR meter (manufactured by NF Corporation) at a measurement frequency of 1 kHz. The electrical capacity of n-hexane was also measured as a control sample. The relative dielectric constant of the dye was calculated based on the extrapolation method using the dielectric constants of the above prepared dye solutions calculated from the their electric capacities.

Row | Compound | Absorption Maximum Wavelength λmax [1] | Absorption Coefficient (ε) [1] | Solubility (% by mass) [2] | Viscosity (5%) [3] | Viscosity (10%) ([3]; 10% by mass solution in n-hexane) | Relative Dielectric Constant [4] | Solubility (in words) [2]
1 | CCCCCCCCCCCCN(CCCCCCCCCCCC)c1ccc(C=C2C(=O)ON=C2c2ccccc2)cc1 [D-2] | 468 nm | 4.50 × 10^4 | 10.5 % by mass | 2.1 mPa · S | 3.2 mPa · S | 8.2 | –
2 | CCCCCCCCCCCCn1cc(C=C2C(=O)ON=C2c2ccccc2)c2ccccc21 [D-25] | 426 nm | 3.66 × 10^4 | 8.0 % by mass | 2.1 mPa · S | – | – | –
3 | COc1ccc(C2=NOC(=O)C2=Cc2ccc(N(CC(=O)O)CC(=O)O)cc2)cc1 [D-102, reference compound] | – | – | 0.008 % by mass | – | – | – | low solubility
4 | CCCCCCCCCCCCN(CCCCCCCCCCCC)c1ccc(C=CC=C2C(=O)ON=C2C(C)(C)C)c(C)c1 [E-2] | 515 nm | 5.10 × 10^4 | 6.5 % by mass | 2.1 mPa · S | – | 9.5 | –
5 | CCCCCCCCN(CCCCCCCC)c1ccc(C=CC=C2C(=O)ON=C2C(C)(C)C)c(OC)c1 [E-3] | 530 nm | 5.20 × 10^4 | 7.2 % by mass | 2.1 mPa · S | – | 9.0 | –
6 | CCCCCCCCCCCCN(CCCCCCCCCCCC)c1ccc(C=CC=CC=C2C(=O)ON=C2C)c(C)c1 [E-7] | 556 nm | 5.20 × 10^4 | 5.0 % by mass | 2.3 mPa · S | – | – | –

Other lines, results leading:

Row | Absorption Maximum Wavelength λmax [1] | Absorption Coefficient (ε) [1] | Solubility (% by mass) [2] | Viscosity (5%) [3] | Viscosity (10%) ([3]; 10% by mass solution in n-hexane) | Relative Dielectric Constant [4] | Solubility (in words) [2] | Compound
7 | 459 nm | 3.80 × 10^4 | 5.0 % by mass | 2.1 mPa · S | – | – | – | CCCCOC(=O)CN(CC(=O)OCCCC)c1ccc(C=C2C(=O)ON=C2C(C)(C)C)cc1 [D-11]
8 | 465 nm | 4.10 × 10^4 | 1.2 % by mass | – | – | – | – | CCCCCCN(CCCCCC)c1ccc(C=C2C(=O)ON=C2C(C)(C)C)c(C)c1 [D-37]
9 | – | – | 0.015 % by mass | – | – | – | low solubility | Cc1cc(C=C2C(=O)ON=C2C(C)(C)C)c(C)n1-c1ccc(C(=O)O)cc1 [D-101, reference compound]
